Columns and labels:
[1] = test system: human CD44, ALDH1A1, Fibronectin, N‐Cadherin, Vimentin in tumor tissue; assay: qRT-PCR of human CSC/EMT genes in tumor tissues; assay type: in vivo, C57BL/6 mice; conditions: with doxorubicin low dose vs low dose doxorubicin alone
Method: Additionally, total RNA was isolated from tumor tissues and utilized for cDNA synthesis (Thermo Scientific, Massachusetts, USA). To determine the transcriptional regulation of expression of EMT genes in tumor tissues subjected to various treatment regimes, quantitative real‐time PCR (qRT‐PCR) analysis was performed as described previously[28] using human gene‐specific forward and reverse primers of EMT genes. Amplification of Eukaryotic 18S rRNA served as an internal control and was utilized to calculate the fold change in expression.[29]
(§1) Animal studies have been carried out with the prior approval of the Institutional Animal Ethics Committee (IICT/IAEC/025/2023). C57BL/6 female mice of age 6–8 weeks (N = 35) were initially immunosuppressed with cyclophosphamide (50 mg/kg of body weight, i.p) on alternate days for 2 weeks. For generating a preclinical orthotopic xenograft tumor model, 2 × 10^6 GFP expressing sorted stable CD24^+‐breast cancer cells and CD24^−/CD44^+‐breast CSCs were orthotopically xeno‐transplanted subcutaneously at the fourth mammary fat pad of immune‐suppressed mice (n = 5/group). Subsequently, intratumoral administration of Doxorubicin at a low dose (2.5 mg/kg of body weight), high dose (10 mg/kg of body weight), and/or combinatorial treatment of the potent EGFR inhibitor, compound 1e (50 mg/kg of body weight) or the commercial EGFR inhibitor, PD153035 (50 mg/kg of body weight) with a low dose of doxorubicin was performed to the palpable tumors of breast CSCs at day‐3 post‐transplantation.

[2] = test system: CD44, p‐EGFR, p‐JNK, p‐p38 in tumor tissue; assay: Immunohistochemical analysis of tumor tissue (colocalization with GFP, Pearson's correlation coefficient); assay type: in vivo, C57BL/6 mice
Method: as §1
Immunohistochemical analysis was performed by immunostaining the tissue serial sections with primary antibodies against GFP, CD44, p‐EGFR, p‐JNK, and p‐p38 (CST, USA) followed by alexafluor‐488/555 conjugated secondary antibodies (R&D systems, USA) and mounting medium containing DAPI.[28], [29] Images were captured using a confocal microscope (Olympus FV10i, Tokyo, Japan). Pearson's correlation coefficient was utilized to determine the co‐localization of GFP/CD44, GFP/p‐EGFR, GFP/p‐JNK, and GFP/p‐p38 (Table. ST3).

[3] = test system: Bax and Cytochrome‐C in MDA‐MB‐231 cells; assay: Gene expression of apoptotic genes, semi-quantitative RT-PCR; assay type: cell-based, human; conditions: MDA-MB-231, doxorubicin + compound 5 μM, 24 h
Method: Briefly, the cells were incubated at 37°C with serum starvation followed by culturing as described above. […] Briefly, the template RNA (1 μg) was utilized for cDNA synthesis using a First‐strand cDNA synthesis kit (Thermo Scientific, USA) according to the manufacturer's protocol. Thermal cycler (Mastercycler® nexus, Eppendorf) was used for the amplification of the expression of apoptotic genes—Bax, Bcl2, Cytochrome‐C, and target gene EGFR with the help of Dream Taq DNA Polymerase PCR Master Mix (Thermo Scientific, USA) along with human gene‐specific forward and reverse primer sequences of the apoptotic genes and EGFR (Table ST1). The expression of the target genes was normalized to the Eukaryotic 18S rRNA.

MDA‐MB‐468 [4] = test system: MDA‐MB‐468; parameters: method as in PMID 28398698; conditions: unit not printed in the sentence (Table 1 in μM); read-out: IC50 against MDA‐MB‐468; cited from earlier work
MDA‐MB‐468 [5] = assay: Cell migration (chemotaxis), Boyden-Chamber assay; assay type: cell-based, human; conditions: Doxorubicin 0.01 μM + compound 5 μM (PD153035 10 μM) vs 10% FBS and Doxorubicin alone
Method: (§2) TNBC cell lines—MDA‐MB‐231, MDA‐MB‐468, and the sorted CD24^+‐breast cancer cells, and CD24^−/CD44^+‐breast CSC populations from MDA‐MB‐231 [6] were seeded at a density of 1 × 10^6 cells/well to evaluate their migratory potential by Boyden‐Chamber assay. […] At the end of the treatment period, the cells were plated at a density of 5 × 10^3 cells/well in the upper chamber of the Boyden chamber assembly and 10% FBS in the lower chamber was used as a chemoattractant. Separately, the cells in the upper chamber were treated with Doxorubicin (0.01–0.1 μM) alone or with the potential EGFR inhibitors (compounds—1c, 1e, 1g, 1h, 1j, and 1k (5 μM) based on their low IC50 values) or a commercial EGFR inhibitor, PD153035 (10 μM) and incubated for 4 h followed by fixation and staining as described previously.[28], [29]

MDA‐MB‐231 [6] = assay: Cell migration (chemotaxis), Boyden-Chamber assay; assay type: cell-based, human; conditions: Doxorubicin 0.01 μM + compound 5 μM (PD153035 10 μM) vs 10% FBS and Doxorubicin alone
Method: as §2

MDA‐MB‐231 [7] = test system: MDA‐MB‐231; parameters: method as in PMID 28398698; conditions: unit not printed in the sentence (Table 1 in μM); read-out: IC50 against MDA‐MB‐231; cited from earlier work
[8] = test system: CD24^−/CD44^+‐breast CSCs xenotransplanted tumors; assay: Preclinical orthotopic xenograft murine tumor model (tumor size, weight, H&E histology); assay type: in vivo, C57BL/6 mice
Method: as §1
Euthanization of mice was performed on day 14 post‐transplantation and tumor tissues were collected for histological and immunohistochemical analysis. Histological differences in tumor tissues were evaluated using hematoxylin and eosin staining (H&E).[28], [30]

## COc1cc2ncnc(Nc3cccc(Br)c3)c2cc1OC [PD153035, reference compound]
[1]
  expression level of human CD44 in tumor tissue: significantly decreased
[2]; with doxorubicin low dose, CSC xenograft tumor tissue
  colocalization of GFP/p‐EGFR: decreased significantly
[2]; with low dose doxorubicin, comparable with high dose doxorubicin alone
  activation of apoptotic signaling mediators (GFP/p‐JNK, GFP/p‐p38 colocalization): increased activation
[2]; with low dose of doxorubicin, CSC xenograft tumor tissue
  colocalization of GFP and CD44 (Pearson's correlation coefficient): comparable to the high dose of doxorubicin treated group
[3]
  expression of pro‐apoptotic genes Bax and Cytochrome‐C: marked increase
MDA‐MB‐468 [4]
  IC50: 15.4 µM
MDA‐MB‐468 [5]
  migratory potential: significant decrease
MDA‐MB‐231 [6]
  migratory potential: significant decrease
MDA‐MB‐231 [7]
  IC50: 3.2 µM
[8]; 50 mg/kg + low dose doxorubicin 2.5 mg/kg, CSC xenograft
  tumorigenicity (H&E histology): significant decrease
[8]; 50 mg/kg + low dose doxorubicin 2.5 mg/kg, CSC xenograft, day 14
  histopathological finding in tumor tissue: neoplastic mass in the dermal region which was completely necrosed and replaced with fibrous tissue
[8]; intratumoral, 50 mg/kg + doxorubicin low dose 2.5 mg/kg vs low dose doxorubicin alone, CD24^−/CD44^+ CSC xenograft
  tumor size: significantly decreased

Source: publication PMC10961089, “Epidermal growth factor receptor inhibition potentiates chemotherapeutics‐mediated sensitization of metastatic breast cancer stem cells” (Cancer Reports, 2024)
